From patent US5462861A, “Method for improving enzyme activities with noble gases” (American Air Liquide, Chicago Research Center, priority 1993, dated 1995) come the findings set out here.

The test system of assay [1] is Tyrosinase. As to the kind of experiment: High pressure experiments, tyrosinase. The conditions noted are these: for % inhibition of gases relative to 1 atmosphere of air: value before the slash (not pressurized). Type of assay: biochemical, Mushroom. The method, then:
Shake the enzyme in each cylinder for several minutes and then remove a 5 ml sample for Control B and Control C. Remove cylinders to the dock, gassing with the appropriate gas; bring pressure slowly up to 30.6 atm. Let sit at the required pressure for 60 minutes. Slowly depressurize to 2 psi before bringing into the lab. Bring the cylinders back to the dock and repressurize to 100 atm with the appropriate gas. Let sit at the required pressure for 60 minutes. Slowly depressurize to 2 psi before bringing into the lab. […] Shake the enzyme in each cylinder for several minutes and then remove a 5 ml sample for Control B and Control C. Remove cylinders to the dock, gassing with the appropriate gas. Remove headspace/residual gas by pressurizing and depressurizing the gas cylinder several times. Bring pressure slowly up to 30.6 atm. Let sit at the required pressure for 60 minutes. Slowly depressurize to 40 psi before bringing into the lab. Enzyme injection: […] The cylinders were pressurized as described above. The cylinder pressure was released and the cylinders repressurized 10 times to remove O2 from the cylinders. Final Pressurization: […] Cylinder 3 was pressurized to 1 atm with Xe then pressurized to 30.6 atm with N2 to conserve Xe. Time Table: […] Due to the fact that on 4/25/91 the spectrophotometers were being used at 5° C. for a different experiment the decision was made to sample the cylinders at the end of the day when the spectrophotometer was available to be put at 25° C. Sampling took place 28 hours after pressurization. A spectro/gas run was immediately preformed on these samples. Apr. 25, 1991 Repressurization: Cylinders were repressurized at 6:00 pm on 4/25/91 to 100 atm. These cylinders will be sampled at 2:00 pm Apr. 26, 1991 (20 hrs after pressurization). Cuvettes were filled for the 2 atm experiments for both enzymes. Each cuvette was gassed 10×10 cc with the appropriate gas and refrigerated for 15 minutes prior to running. Serum vials were filled with 5 cc of the corresponding enzyme and gassed with 10×10 cc of the appropriate gas prior to running. The spectrophotometers were set up such that a continuous flow of each gas could be delivered to each spectro at all times. A 100 […] gauge was installed to read the cuvette pressure and 2 on/off valves were installed so that the reference cell could be pressurized during the second replicate. A ball valve was installed between the cylinder/house line and the gauge so that gas flow could be controlled directly at the spectrophotometers. A check valve was placed in each line to ensure that a back pressure would not cause contamination of the house lines or the gas cylinders. The cuvettes retained the 2 needles during the entire run. One of the needles was attached to the gas line while the second was used for enzyme introduction and then plugged. Due to the bulky nature of the assembly it was impossible to use the installed doors of the spectrophotometers therefore they were removed. A 4-layer thick black felt cover was prepared for each spectro to minimize the amount of light entering the system. While the cuvette was equilibrating to temperature in the spectrophotometer both needles remained in the cuvette with 10 cc syringes still attached. Prior to enzyme introduction one of the syringes was removed while the gas line was attached to the needle. A small flow of gas run through the line while this was done to ensure that there was no oxygen contamination. The needles remained above the liquid level. The second syringe was removed to allow constant flow through the cuvette. The enzyme was injected through the second needle using a 1 cc syringe. The needle was then plugged, the cuvette pressurized and the run begun. A nonpressurized gas run using all four gases was done for each enzyme. Each cuvette was gassed with 10×10 cc of the corresponding gas and refrigerated for 15 minutes. The 2 needles used for gassing the cuvettes were removed when the cuvettes were placed into the spectrophotometer. […]

Assay [2] concerns α-D-glucosidase. As to the kind of experiment: α-D-glucosidase activity under gas. Type of assay: biochemical. The conditions noted are these: for effect on α-glucosidase activity: 60° C., FIG. 43; for effect on α-D-glucosidase: FIG. 31. The method, then: Solution preparation: Optimized w/v solutions are prepared by diluting the enzyme (units/ml) and the substrate (μg/ml) in appropriate buffer (optimized pH and molarity for enzymes). The solutions are used for gas experiments at once to avoid loss of activity. Various enzyme and substrate concentrations and inhibitors may be employed. Physical parameters are varied as required. […] Gas-tight serum vials are filled with enzyme and solvent. Sufficient gas is consecutively bubbled in the cuvets and serum vials, with a 1-hr wait between injections to maximize equilibration of gas. All syringes and dead spaces are purged before filling with the appropriate gas. The amount of gas used has been measured sufficient to saturate the solution required. Spectrophotometric time-drive, reaction rate, and kinetic analyses: cuvets and serum vials are saturated with gas 40 minutes before the run. A gas-filled syringe is used to retrieve 0.5 ml of enzyme solution to avoid air contact. […] Changes in the rate or final equilibrium of the reaction versus ambient air are recorded. Comparison is also made with added oxygen, and with deoxygenation. Some samples are also prepared under pressure.

Setting [3] is: 30.6 atm (24 hr), Xe = Xe 1 atm/N2 to pressure.
Where [4] appears, read: 100 atm (~24 hr), Xe = Xe 1 atm/N2 to pressure.

“Also recorded” adds a separate entry of the source.

Take `[Kr]` [Kr, krypton]: in assay [1] (2 atm), the “inhibition relative to 1 atmosphere after pressurization” value (“inhibition relative to 1 atmosphere” below) was -93.1%. In addition, the “% inhibition of gases relative to 1 atmosphere of air” value in assay [1] (2 atm experiment) was -84.5%. For the same compound, the “effect on α-glucosidase activity” value in assay [2] is listed as “inhibited”.

For `[Xe]` [Xe, xenon], the “inhibition relative to 1 atmosphere” value in assay [1] (2 atm) is given as -86.2%; in assay [1] (setting [3]) it was -87.0%; in assay [1] (setting [4]), -85.7%. Also, the “% inhibition of gases relative to 1 atmosphere of air” value in assay [1] (2 atm experiment) is listed as -76.0%. Besides, the effect on tyrosinase result is “inhibitory effect” in assay [1] (30 atm. pressure, FIG. 39) and “inhibitory effect” in assay [1] (100 atm. pressure, FIG. 40). Moreover, in assay [1] (effect of pressure), the “change in relative effect” value was 75%. In addition, in assay [2], the “effect on α-glucosidase activity” value was “enhanced”.

Take `[Ar]` [Ar, argon]: the figures for the “inhibition relative to 1 atmosphere” value in assay [1] (2 atm) and in assay [1] (3 atm) were -90.4% and -72.1%, respectively. Also, the “% inhibition of gases relative to 1 atmosphere of air” value is -76.9% in assay [1] (2 atm experiment) and -55.8% in assay [1] (3 atm experiment). Moreover, the “effect on α-glucosidase activity” value in assay [2] was “enhanced; also recorded: potent enhancer”. The “effect on α-D-glucosidase” value in assay [2] is “enhancement”.

On to `N#N` [N2, nitrogen, reference compound], for which the “inhibition relative to 1 atmosphere” value is -88.5% in assay [1] (2 atm); -82.6% in assay [1] (3 atm); -15.4% in assay [1] (30.6 atm (1 hr)); -78.8% in assay [1] (setting [3]); -20.0% in assay [1] (100 atm (1 hr)); -84.7% in assay [1] (setting [4]). The “% inhibition of gases relative to 1 atmosphere of air” value is given as -71.2% in assay [1] (2 atm experiment) and -72.1% in assay [1] (3 atm experiment). The effect on tyrosinase entry in assay [1] (30 atm. pressure, FIG. 39) is given as “inhibitory effect”; in assay [1] (100 atm. pressure, FIG. 40), “inhibitory effect”. Also, in assay [2], the “effect on α-glucosidase activity” value is recorded as “enhanced”. Moreover, the “effect on α-D-glucosidase” value in assay [2] was “enhancement”.

Regarding `[Ne]` [Ne, neon], in assay [1] (2 atm), the “inhibition relative to 1 atmosphere” value was -84.5%. In addition, the “% inhibition of gases relative to 1 atmosphere of air” value in assay [1] (2 atm experiment) was -69.0%. Also, in assay [2], the “effect on α-D-glucosidase” value is recorded as “enhancement”.
